Measured values: patent publication US8044052B2, “Biaryl ether urea compounds” (Pfizer Inc., priority 2006, dated 2011)
Structures can show the parent of a compound that is named as a salt.

These compounds were tested against T1, Human FAAH (Homo sapiens, UniProt O00519) (assay: FAAH assay (glutamate dehydrogenase-coupled, oleamide substrate, absorbance at 340 nm)). Conditions: irreversible inhibition, 1-4 nM FAAH, pH 7.4, 30° C., 90 min.
T1 construct: made in house
T1 sequence (O00519 1-579): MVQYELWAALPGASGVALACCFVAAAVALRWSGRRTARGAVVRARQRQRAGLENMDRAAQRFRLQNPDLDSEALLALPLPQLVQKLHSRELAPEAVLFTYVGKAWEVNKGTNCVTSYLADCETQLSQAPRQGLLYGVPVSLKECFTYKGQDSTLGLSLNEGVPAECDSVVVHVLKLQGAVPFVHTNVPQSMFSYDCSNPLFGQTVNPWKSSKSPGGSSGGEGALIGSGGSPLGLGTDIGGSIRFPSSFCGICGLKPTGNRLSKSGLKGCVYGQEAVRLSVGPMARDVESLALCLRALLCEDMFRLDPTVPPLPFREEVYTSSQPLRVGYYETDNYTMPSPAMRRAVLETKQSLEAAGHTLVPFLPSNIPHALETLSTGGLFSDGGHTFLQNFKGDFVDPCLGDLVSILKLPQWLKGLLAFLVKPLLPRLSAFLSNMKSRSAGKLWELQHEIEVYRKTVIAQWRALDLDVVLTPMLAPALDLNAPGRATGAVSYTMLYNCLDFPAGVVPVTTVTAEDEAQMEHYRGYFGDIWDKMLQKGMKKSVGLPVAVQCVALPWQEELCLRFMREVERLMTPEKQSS
Format: biochemical

Row | Compound | hFAAH kinact/Ki [M⁻¹ s⁻¹]
1 | O=C(Nc1cccnc1)N1CCC(=Cc2cccc(Oc3ccc(OCC(F)(F)F)cc3)c2)CC1 [Example 99, N-pyridin-{3-yl-4-3-[4-(2,2,2-trifluoroethoxy)phenoxy]benzylidene}piperidine-1-carboxamide] | 1130

Same assay, conditions: irreversible inhibition, 1-4 nM FAAH, pH 7.4, 30° C., 90 min, read-out: hFAAH kinact/Ki

Row | kinact/KI [M⁻¹ s⁻¹] | Compound
2 | 4880 | O=C(Nc1ncccc1O)N1CCC(=Cc2cccc(Oc3ccc(C(F)(F)F)cn3)c2)CC1 [Example 79, N-(3-hydroxypyridin-2-yl)-4-(3-{[5-(trifluoromethyl)pyridin-2-yl]oxy}benzylidene)piperidine-1-carboxamide trifluoroacetate]
3 | 353 | CCc1cc(NC(=O)N2CCC(=Cc3cccc(Oc4ccc(C(F)(F)F)cn4)c3)CC2)[nH]n1 [Example 80, N-(3-ethyl-1H-pyrazol-5-yl)-4-(3-{[5-(trifluoromethyl)pyridin-2-yl]oxy}benzylidene)piperidine-1-carboxamide trifluoroacetate]
4 | 1010 | CCn1ncnc1NC(=O)N1CCC(=Cc2cccc(Oc3ccc(C(F)(F)F)cn3)c2)CC1 [Example 81, N-(1-ethyl-1H-1,2,4-triazol-5-yl)-4-(3-{[5-(trifluoromethyl)pyridin-2-yl]oxy}benzylidene)piperidine-1-carboxamide trifluoroacetate]
5 | 979 | O=C(Nc1cccc(CO)c1)N1CCC(=Cc2cccc(Oc3ccc(C(F)(F)F)cn3)c2)CC1 [Example 82, N-[3-(hydroxymethyl)phenyl]-4-(3-{[5-(trifluoromethyl)pyridin-2-yl]oxy}benzylidene)piperidine-1-carboxamide]
6 | 356 | O=C(Nc1cc(CO)ccn1)N1CCC(=Cc2cccc(Oc3ccc(C(F)(F)F)cn3)c2)CC1 [Example 83, N-[4-(hydroxymethyl)pyridin-2-yl]-4-(3-{[5-(trifluoromethyl)pyridin-2-yl]oxy}benzylidene)piperidine-1-carboxamide trifluoroacetate]
7 | 5590 | O=C(Nc1ccc(Cl)nn1)N1CCC(=Cc2cccc(Oc3ccc(C(F)(F)F)cn3)c2)CC1 [Example 84, N-(6-chloropyridazin-3-yl)-4-(3-{[5-(trifluoromethyl)pyridin-2-yl]oxy}benzylidene)piperidine-1-carboxamide]
8 | 1540 | O=C(Nc1cccnn1)N1CCC(=Cc2cccc(Oc3ccc(N4CCCC4)cn3)c2)CC1 [Example 85, 4-(3-(5-(pyrrolidin-1-yl)pyridin-2-yloxy)benzylidene)-N-(pyridazin-3-yl)piperidine-1-carboxamide]
9 | 856 | O=C(Nc1cccnc1)N1CCC(=Cc2cccc(Oc3ccc(N4CCCC4)cn3)c2)CC1 [Example 86, 4-(3-(5-(pyrrolidin-1-yl)pyridin-2-yloxy)benzylidene)-N-(pyridin-3-yl)piperidine-1-carboxamide]
10 | 1840 | O=C(Nc1cccnn1)N1CCC(=Cc2cccc(Oc3ccc(N4CCC4)cn3)c2)CC1 [Example 87, 4-(3-(5-(azetidin-1-yl)pyridin-2-yloxy)benzylidene)-N-(pyridazin-3-yl)piperidine-1-carboxamide]
11 | 3580 | O=C(Nc1cccnc1)N1CCC(=Cc2cccc(Oc3ccc(N4CCC4)cn3)c2)CC1 [Example 88, 4-(3-(5-(azetidin-1-yl)pyridin-2-yloxy)benzylidene)-N-(pyridin-3-yl)piperidine-1-carboxamide]
12 | 6450 | C#CCCCOc1ccc(Oc2cccc(C=C3CCN(C(=O)Nc4cccnc4)CC3)c2)nc1 [Example 89, 4-(3-(5-(pent-4-ynyloxy)pyridin-2-yloxy)benzylidene)-N-(pyridin-3-yl)piperidine-1-carboxamide]
13 | 7600 | C#CCCCOc1ccc(Oc2cccc(C=C3CCN(C(=O)Nc4cccnn4)CC3)c2)nc1 [Example 90, 4-(3-(5-(pent-4-ynyloxy)pyridin-2-yloxy)benzylidene)-N-(Pyridazin-3-yl)piperidine-1-carboxamide]
14 | 636 | O=C(Nc1cccnn1)N1CCC(=Cc2cccc(Oc3ccccc3)n2)CC1 [Example 91, 4-((6-phenoxypyridin-2-yl)methylene)-N-(pyridazin-3-yl)piperidine-1-carboxamide]
15 | 894 | O=C(Nc1cccnc1)N1CCC(=Cc2cccc(Oc3ccccc3)n2)CC1 [Example 92, 4-((6-phenoxypyridin-2-yl)methylene)-N-(pyridin-3-yl)piperidine-1-carboxamide]
16 | 394 | COc1ccc(Oc2cccc(C=C3CCN(C(=O)Nc4cccnn4)CC3)c2)c(C)n1 [Example 97, 4-{3-[(6-methoxy-2-methylpyridin-3-yl)oxy]benzylidene}-N-pyridazin-3-ylpiperidine-1-carboxamide]
17 | 2000 | O=C(Nc1cccnn1)N1CCC(=Cc2cccc(Oc3ccc(OCC(F)(F)F)cc3)c2)CC1 [Example 100, N-pyridazin-3-yl-4-{3-[4-(2,2,2-trifluoroethoxy)phenoxy]benzylidene}piperidine-1-carboxamide]

Row | kinact/KI [M⁻¹ s⁻¹] | Compound
18 | 209 | COc1cccc2cnc(Oc3cccc(C=C4CCN(C(=O)Nc5cccnn5)CC4)c3)nc12 [Example 101, 4-{3-[(8-methoxyquinazolin-2-yl)oxy]benzylidene}-N-pyridazin-3-ylpiperidine-1-carboxamide]
19 | 1390 | O=C(Nc1cccnn1)N1CCC(=Cc2cccc(Oc3ncc4cccnc4n3)c2)CC1 [Example 102, N-pyridazin-3-yl-4-[3-(pyrido[2,3-d]pyrimidin-2-yloxy)benzylidene]piperidine-1-carboxamide]
20 | 162 | O=C(Nc1cccnn1)N1CCC(=Cc2cccc(Oc3ncccn3)c2)CC1 [Example 103, N-pyridazin-3-yl-4-[3-(pyrimidin-2-yloxy)benzylidene]piperidine-1-carboxamide]
21 | 105 | COc1ccc(-c2cnc(Oc3cccc(C=C4CCN(C(=O)Nc5cccnn5)CC4)c3)nc2)cc1 [Example 104, 4-(3-{[5-(4-methoxyphenyl)pyrimidin-2-yl]oxy}benzylidene)-N-pyridazin-3-ylpiperidine-1-carboxamide]
22 | 2530 | O=C(Nc1cccnn1)N1CCC(=Cc2cccc(Oc3ncc4ccccc4n3)c2)CC1 [Example 105, N-pyridazin-3-yl-4-[3-(quinazolin-2-yloxy)benzylidene]piperidine-1-carboxamide]
23 | 3330 | O=C(Nc1cccnn1)N1CCC(=Cc2cccc(Oc3ncc(C4CC4)cn3)c2)CC1 [Example 106, 4-{3-[(5-cyclopropylpyrimidin-2-yl)oxy]benzylidene}-N-pyridazin-3-ylpiperidine-1-carboxamide]
24 | 6220 | CCc1cnc(Oc2cccc(C=C3CCN(C(=O)Nc4cccnn4)CC3)c2)nc1 [Example 107, 4-{3-[(5-ethylpyrimidin-2-yl)oxy]benzylidene}-N-pyridazin-3-ylpiperidine-1-carboxamide]
25 | 1120 | O=C(Nc1cccnn1)N1CCC(=Cc2cccc(Oc3ncc(F)cn3)c2)CC1 [Example 108, 4-{3-[(5-fluoropyrimidin-2-yl)oxy]benzylidene}-N-pyridazin-3-ylpiperidine-1-carboxamide]
26 | 1240 | Cc1cnc(Oc2cccc(C=C3CCN(C(=O)Nc4cccnn4)CC3)c2)nc1 [Example 109, 4-{3-[(5-methylpyrimidin-2-yl)oxy]benzylidene}-N-pyridazin-3-ylpiperidine-1-carboxamide]
27 | 1020 | O=C(Nc1cccnn1)N1CCC(=Cc2cccc(Oc3ncc(-c4cccc(Cl)c4)cn3)c2)CC1 [Example 110, 4-(3-{[5-(3-chlorophenyl)pyrimidin-2-yl]oxy}benzylidene)-N-pyridazin-3-ylpiperidine-1-carboxamide]
28 | 4240 | CCCc1cnc(Oc2cccc(C=C3CCN(C(=O)Nc4cccnn4)CC3)c2)nc1 [Example 111, 4-{3-[(5-propylpyrimidin-2-yl)oxy]benzylidene}-N-pyridazin-3-ylpiperidine-1-carboxamide]
29 | 861 | Cc1cnc(Oc2cccc(C=C3CCN(C(=O)Nc4cccnn4)CC3)c2)nc1C(C)C [Example 112, 4-{3-[(4-isopropyl-5-methylpyrimidin-2-yl)oxy]benzylidene}-N-pyridazin-3-ylpiperidine-1-carboxamide]
30 | 584 | O=C(Nc1cccnn1)N1CCC(=Cc2cccc(Oc3nccc(C(F)(F)F)n3)c2)CC1 [Example 113, N-pyridazin-3-yl-4-(3-{[4-(trifluoromethyl)pyrimidin-2-yl]oxy}benzylidene)piperidine-1-carboxamide]
31 | < 10 | Cc1nc2c(c(Oc3cccc(C=C4CCN(C(=O)Nc5cccnn5)CC4)c3)n1)CCN(C)C2 [Example 114, 4-{3-[(2,7-dimethyl-5,6,7,8-tetrahydropyrido[3,4-d]pyrimidin-4-yl)oxy]benzylidene}-N-pyridazin-3-ylpiperidine-1-carboxamide]
32 | < 11.2 | CCc1cc(Oc2cccc(C=C3CCN(C(=O)Nc4cccnn4)CC3)c2)nc(C(F)(F)F)n1 [Example 115, 4-(3-{[6-ethyl-2-(trifluoromethyl)pyrimidin-4-yl]oxy}benzylidene)-N-pyridazin-3-ylpiperidine-1-carboxamide]
33 | 40.8 | Cc1cc(C(F)(F)F)cc(Oc2cccc(C=C3CCN(C(=O)Nc4cccnn4)CC3)c2)n1 [Example 116, 4-(3-{[6-methyl-4-(trifluoromethyl)pyridin-2-yl]oxy}benzylidene)-N-pyridazin-3-ylpiperidine-1-carboxamide]
